Results taken from patent publication US12139487B2, “Compounds and uses thereof” (Foghorn Therapeutics Inc., priority 2022, dated 2024).

Legend:
[1] = target: T1, BRG-1 (Homo sapiens, UniProt P51532); assay: ATPase catalytic activity assay (ADP-Glo), BRG-1; assay type: biochemical; details: Table 10, read-out: BRG1 IC50
T1 construct: made in house; host or cells: High Five insect cells
Summary of the method: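 BRG-1 ATPase activity was measured by ADP-Glo. Unconsumed ATP was depleted for 40 min at room temperature, then ADP was converted to ATP for 60 min and read as luminescence.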

[2] = target: T2, BRM (Homo sapiens, UniProt P51531); assay: ATPase catalytic activity assay (ADP-Glo), BRM; assay type: biochemical; details: Table 10; for Ratio (BRG1 IC50 (μM) divided by BRM IC50 (μM)): ATPase assay, selectivity BRG1/BRM; for IC50: ATPase catalytic activity assay (ADP-Glo)
T2 construct: made in house; host or cells: High Five insect cells
Summary of the method: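 Reaction holds 30 nM BRM, 20 nM salmon sperm DNA and 400 μM ATP in 20 mM Tris pH 8, 20 mM MgCl2, 50 mM NaCl, 0.1% Tween-20, 1 mM DTT. Incubated 1 h at room temperature. ADP formed is detected by ADP-Glo luminescence.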

T1 sequence (P51532 whole entry): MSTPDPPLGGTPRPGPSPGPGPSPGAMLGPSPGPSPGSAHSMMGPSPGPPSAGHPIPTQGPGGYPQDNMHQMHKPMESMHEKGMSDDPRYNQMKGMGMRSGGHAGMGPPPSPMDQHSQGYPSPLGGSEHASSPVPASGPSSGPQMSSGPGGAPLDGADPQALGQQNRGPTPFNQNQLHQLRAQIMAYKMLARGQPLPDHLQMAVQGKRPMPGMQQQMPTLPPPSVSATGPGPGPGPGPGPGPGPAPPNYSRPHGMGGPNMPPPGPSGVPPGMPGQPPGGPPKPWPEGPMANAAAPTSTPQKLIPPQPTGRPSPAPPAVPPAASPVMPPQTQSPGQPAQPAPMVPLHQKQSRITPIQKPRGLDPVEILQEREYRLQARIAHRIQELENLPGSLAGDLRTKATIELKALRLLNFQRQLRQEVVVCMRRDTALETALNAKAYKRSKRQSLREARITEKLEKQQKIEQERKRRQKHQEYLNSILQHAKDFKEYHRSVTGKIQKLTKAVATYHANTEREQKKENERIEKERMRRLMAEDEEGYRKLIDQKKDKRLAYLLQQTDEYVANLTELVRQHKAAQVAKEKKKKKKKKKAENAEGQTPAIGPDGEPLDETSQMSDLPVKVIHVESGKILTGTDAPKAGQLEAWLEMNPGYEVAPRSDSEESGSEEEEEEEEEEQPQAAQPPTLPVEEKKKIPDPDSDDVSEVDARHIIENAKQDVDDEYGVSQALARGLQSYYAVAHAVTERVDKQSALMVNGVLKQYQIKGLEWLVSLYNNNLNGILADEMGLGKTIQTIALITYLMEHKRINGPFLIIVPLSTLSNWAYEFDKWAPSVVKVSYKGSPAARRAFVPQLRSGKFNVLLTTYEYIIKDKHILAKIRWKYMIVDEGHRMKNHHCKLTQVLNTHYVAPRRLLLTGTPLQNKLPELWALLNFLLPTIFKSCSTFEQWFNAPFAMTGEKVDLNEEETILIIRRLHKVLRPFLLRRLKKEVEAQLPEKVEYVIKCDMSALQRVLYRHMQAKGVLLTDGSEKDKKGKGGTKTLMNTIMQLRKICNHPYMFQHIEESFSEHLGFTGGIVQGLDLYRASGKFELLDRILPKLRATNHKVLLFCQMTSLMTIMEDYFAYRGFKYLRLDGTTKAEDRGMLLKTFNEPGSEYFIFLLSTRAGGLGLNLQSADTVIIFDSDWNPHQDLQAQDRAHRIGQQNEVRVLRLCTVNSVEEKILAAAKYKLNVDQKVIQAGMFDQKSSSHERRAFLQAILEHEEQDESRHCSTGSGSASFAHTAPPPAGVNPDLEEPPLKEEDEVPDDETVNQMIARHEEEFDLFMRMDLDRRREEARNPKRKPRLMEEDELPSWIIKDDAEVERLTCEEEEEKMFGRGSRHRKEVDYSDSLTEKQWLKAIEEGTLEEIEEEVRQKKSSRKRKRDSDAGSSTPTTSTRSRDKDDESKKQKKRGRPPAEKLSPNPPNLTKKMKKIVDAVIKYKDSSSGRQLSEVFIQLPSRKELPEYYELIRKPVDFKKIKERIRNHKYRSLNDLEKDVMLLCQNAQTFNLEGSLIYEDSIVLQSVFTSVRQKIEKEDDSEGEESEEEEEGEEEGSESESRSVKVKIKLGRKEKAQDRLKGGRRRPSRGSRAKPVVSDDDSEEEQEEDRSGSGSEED
T2 sequence (P51531 whole entry): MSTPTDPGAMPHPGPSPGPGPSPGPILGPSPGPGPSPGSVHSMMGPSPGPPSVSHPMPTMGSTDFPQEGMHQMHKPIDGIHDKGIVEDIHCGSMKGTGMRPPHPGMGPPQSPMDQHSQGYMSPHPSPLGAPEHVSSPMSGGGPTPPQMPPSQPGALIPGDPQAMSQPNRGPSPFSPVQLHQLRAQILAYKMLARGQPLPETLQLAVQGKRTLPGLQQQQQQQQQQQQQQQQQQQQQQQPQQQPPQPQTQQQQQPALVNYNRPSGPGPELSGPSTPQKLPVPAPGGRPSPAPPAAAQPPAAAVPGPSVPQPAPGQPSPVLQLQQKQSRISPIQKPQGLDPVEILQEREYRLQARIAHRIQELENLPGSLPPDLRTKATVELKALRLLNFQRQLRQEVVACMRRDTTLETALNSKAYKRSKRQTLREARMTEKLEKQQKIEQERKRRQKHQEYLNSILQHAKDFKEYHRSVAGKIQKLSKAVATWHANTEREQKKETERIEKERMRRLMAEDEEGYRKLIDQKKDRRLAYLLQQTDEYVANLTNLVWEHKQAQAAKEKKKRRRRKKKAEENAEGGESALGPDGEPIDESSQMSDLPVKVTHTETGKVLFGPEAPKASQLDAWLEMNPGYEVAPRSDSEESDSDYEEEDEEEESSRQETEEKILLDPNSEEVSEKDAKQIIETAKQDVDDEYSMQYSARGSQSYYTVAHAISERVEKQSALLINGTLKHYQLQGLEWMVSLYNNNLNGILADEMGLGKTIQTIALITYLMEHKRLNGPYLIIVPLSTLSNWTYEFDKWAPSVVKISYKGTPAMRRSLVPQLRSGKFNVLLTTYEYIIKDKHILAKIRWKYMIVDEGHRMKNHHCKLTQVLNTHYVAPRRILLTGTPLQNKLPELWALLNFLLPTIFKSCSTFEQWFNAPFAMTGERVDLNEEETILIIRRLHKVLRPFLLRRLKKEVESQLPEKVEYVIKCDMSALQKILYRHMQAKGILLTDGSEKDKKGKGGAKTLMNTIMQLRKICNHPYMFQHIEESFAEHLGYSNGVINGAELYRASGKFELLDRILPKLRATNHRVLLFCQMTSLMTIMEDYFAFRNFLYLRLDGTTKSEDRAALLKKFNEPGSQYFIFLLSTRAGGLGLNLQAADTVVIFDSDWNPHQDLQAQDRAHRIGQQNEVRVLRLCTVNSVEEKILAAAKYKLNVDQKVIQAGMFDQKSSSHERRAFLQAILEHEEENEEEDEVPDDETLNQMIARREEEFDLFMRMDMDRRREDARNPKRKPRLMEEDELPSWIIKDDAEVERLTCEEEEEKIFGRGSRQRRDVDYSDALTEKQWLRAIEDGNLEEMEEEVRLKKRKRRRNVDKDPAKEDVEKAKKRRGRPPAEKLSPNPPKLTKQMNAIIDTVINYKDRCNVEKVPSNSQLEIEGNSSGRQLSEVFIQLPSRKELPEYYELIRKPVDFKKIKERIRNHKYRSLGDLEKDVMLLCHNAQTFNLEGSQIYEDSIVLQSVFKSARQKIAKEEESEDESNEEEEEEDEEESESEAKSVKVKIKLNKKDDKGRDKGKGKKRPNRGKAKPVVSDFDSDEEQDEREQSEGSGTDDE

SMILES | IC50 [1] [nM] | Ratio (BRG1 IC50 (μM) divided by BRM IC50 (μM)) [2] | IC50 [2] [nM]
O=C(NCc1cc2nc(N3CCOc4cc([C@H]5CC5(F)F)cnc43)ccc2cn1)c1cc(F)c2c(c1)S(=O)(=O)[C@@H](F)CCO2 [Compound 166] | 83.8 | 15.93 | 5.3
COc1nc(C(F)F)ccc1-c1ccc2cnc(CNC(=O)c3cc(F)c4c(c3)S(=O)(=O)[C@@H](F)COC4)c(F)c2n1 [Compound 167] | 56.7 | 10.82 | 5.3
O=C(NCc1cc2nc(N3CCCc4cc(N5C[C@@H](F)[C@H](F)C5)cnc43)ccc2cn1)c1cc(F)c2c(c1)S(=O)(=O)[C@@H](F)CCO2 [Compound 168] | 79.5 | 15.00 | 5.3
O=C(NCc1cc2nc(N3CCCc4c(OC(F)F)ccnc43)ccc2cn1)c1cc(F)c2c(c1)S(=O)(=O)[C@@H](F)CCO2 [Compound 169] | 58.3 | 10.91 | 5.3
CCOc1cccc(-c2ccc3cnc(CNC(=O)c4cc(F)c5c(c4)S(=O)(=O)[C@@H](F)CCO5)cc3n2)n1 [Compound 170] | 122 | 24.59 | 5.3
[2H]C1([2H])Oc2c(F)cc(C(=O)NCc3cc4nc(N5CCOc6cc(N7CC(F)C7)cnc65)ccc4cn3)cc2S(=O)(=O)[C@@]([2H])(F)C1([2H])[2H] [Compound 171] | 89.1 | 16.27 | 5.5
O=C(NCc1cc2nc(N3CCCc4cc(N5CCOCC5)cnc43)ccc2cn1)c1cc(F)c2c(c1)S(=O)(=O)[C@@H](F)CCO2 [Compound 172] | 74.1 | 13.09 | 5.5
COc1nc([C@H](C)F)ccc1-c1ccc2cnc(CNC(=O)c3cc(F)c4c(c3)S(=O)(=O)[C@@H](F)CCO4)cc2n1 [Compound 173] | 178 | 30.21 | 5.5
COc1nc([C@H](C)F)ccc1-c1ccc2cnc(CNC(=O)c3cc(Cl)c4c(c3)S(=O)(=O)[C@@H](F)COC4)cc2n1 [Compound 174] | 158 | 28.19 | 5.6
C[C@@H]1CCN1c1cnc2c(c1)OCCN2c1ccc2cnc(CNC(=O)c3cc(C(F)F)c4c(c3)S(=O)(=O)[C@@H](F)COC4)cc2n1 [Compound 175] | 49.3 | 12.83 | 5.6
CC(F)(F)c1cnc2c(c1)OCCN2c1ccc2cnc(CNC(=O)c3cc(F)c4c(c3)S(=O)(=O)[C@@H](F)CCO4)cc2n1 [Compound 176] | 123 | 17.02 | 5.6
COc1nc(C(F)F)ccc1-c1ccc2cnc(CNC(=O)c3cc(F)c4c(c3)S(=O)(=O)[C@@H](F)CCO4)cc2n1 [Compound 177] | 113 | 22.67 | 5.6
O=C(NCc1cc2nc(N3CCCc4sc(C5CC5)nc43)ccc2cn1)c1cc(F)c2c(c1)S(=O)(=O)[C@@H](F)CCO2 [Compound 178] | 207 | 34.29 | 5.6
O=C(NCc1cc2cc(-c3ccc(OC(F)F)c(C4CC4)n3)ccc2cn1)c1cc(F)c2c(c1)S(=O)(=O)[C@@H](F)CCO2 [Compound 179] | 59.9 | 10.62 | 5.6
O=C(NCc1cc2nc(N3CCOc4cc(OC(F)F)cnc43)ccc2cn1)c1cc(F)c2c(c1)S(=O)(=O)[C@@H](F)CCO2 [Compound 180] | 104 | 18.29 | 5.7
COc1ccc(-c2ccc3cnc(CNC(=O)c4cc(F)c5c(c4)S(=O)(=O)[C@@H](F)CCO5)cc3n2)nc1C1CC1 [Compound 181] | 146 | 29.09 | 5.7
O=C(NCc1cc2nc(N3CCOc4cc(N5CC[C@@H](F)C5)cnc43)ccc2cn1)c1cc(F)c2c(c1)S(=O)(=O)[C@@H](F)CCO2 [Compound 182] | 83.9 | 16.19 | 5.7

SMILES | IC50 [1] [nM] | Ratio (BRG1 IC50 (μM) divided by BRM IC50 (μM)) [2] | IC50 [2] [nM]
O=C(NCc1cc2nc(N3CCOc4cc(N5CC[C@H](F)C5)cnc43)ccc2cn1)c1cc(F)c2c(c1)S(=O)(=O)[C@@H](F)CCO2 [Compound 183] | 89.9 | 12.89 | 5.7
O=C(NCc1cc(C#Cc2cccc(OC(F)F)n2)ccn1)c1cc(F)c2c(c1)S(=O)(=O)[C@@H](F)COC2 [Compound 184, (R)—N-((4-((6-(difluoromethoxy)pyridin-2-yl)ethynyl)pyridin-2-yl)methyl)-2,6-difluoro-3,5-dihydro-2H-benzo[e][1,4]oxathiepine-8-carboxamide 1,1-dioxide] | 3420 | 23.91 | 143
O=C(NCc1cc2nc(N3CCOc4ccc(C(F)F)nc43)ccc2cn1)c1cc(F)c2c(c1)S(=O)(=O)[C@@H](F)CCO2 [Compound 185] | 110 | 21.73 | 5.7
[2H]C1([2H])Oc2c(F)cc(C(=O)NCc3cc4nc(-c5ccc(OC(F)F)c(C6CC6)n5)ccc4cn3)cc2S(=O)(=O)[C@@]([2H])(F)C1([2H])[2H] [Compound 186] | 102 | 16.18 | 5.7
O=C(NCc1cc2nc(N3CCOc4cc(N5CCC5)cnc43)ccc2cn1)c1ccc2c(c1)S(=O)(=O)[C@@H](F)CCO2 [Compound 187] | 76.6 | 13.32 | 5.8
O=C(NCc1cc2nc(-c3ccnc(N4CCCC4)n3)ccc2cn1)c1cc(F)c2c(c1)S(=O)(=O)[C@@H](F)CCO2 [Compound 188] | 132 | 20.95 | 5.8
COCCOc1ccnc2c1CCCN2c1ccc2cnc(CNC(=O)c3cc(F)c4c(c3)S(=O)(=O)[C@@H](F)CCO4)cc2n1 [Compound 189] | 107 | 16.84 | 5.8
O=C(NCc1cc2nc(N3CCOc4cc(N5CCC5)cnc43)ccc2cn1)c1cc(F)c2c(c1)S(=O)(=O)[C@@H](F)CCO2 [Compound 190] | 127 | 20.33 | 5.8
Cn1ccc2c(-c3ccc4cnc(CNC(=O)c5cc(F)c6c(c5)S(=O)(=O)[C@@H](F)CCO6)cc4n3)cccc21 [Compound 191] | 62.1 | 10.64 | 5.8
C[C@@H]1C[C@@H]1c1cnc2c(c1)OCCN2c1ccc2cnc(CNC(=O)c3cc(F)c4c(c3)S(=O)(=O)[C@@H](F)CCO4)cc2n1 [Compound 192] | 66.5 | 11.37 | 5.9
COc1nc(C)ccc1-c1ccc2cnc(CNC(=O)c3cc(F)c4c(c3)S(=O)(=O)[C@@H](F)CCO4)cc2n1 [Compound 193] | 110 | 16.06 | 5.9
CCCc1ccnc2c1OCCN2c1ccc2cnc(CNC(=O)c3cc(F)c4c(c3)S(=O)(=O)[C@@H](F)CCO4)cc2n1 [Compound 194] | 69.2 | 11.72 | 5.9
O=C(NCc1cc2nc(-c3ccnc([C@H]4CC4(F)F)n3)ccc2cn1)c1cc(F)c2c(c1)S(=O)(=O)[C@@H](F)CCO2 [Compound 195] | 168 | 24.88 | 5.9
O=C(NCc1cc2cc(-c3cccc(OC(F)F)n3)ccc2nn1)c1cc(Cl)c2c(c1)S(=O)(=O)[C@@H](F)COC2 [Compound 196] | 3840 | 38.53 | 99.8
COc1nc(C(F)F)ccc1-c1ccc2cnc(CNC(=O)c3ccc4c(c3)S(=O)(=O)[C@@H](F)CO[C@H]4C)cc2n1 [Compound 197] | 84.6 | 14.25 | 6
C[C@H](F)c1cnc2c(c1)OCCN2c1ccc2cnc(CNC(=O)c3cc(F)c4c(c3)S(=O)(=O)[C@@H](F)CCO4)cc2n1 [Compound 198] | 103 | 17.01 | 6
